Tested on: Mycobacterium tuberculosis H37Rv growth inhibition, no glycerol
Test: Confirmatory growth inhibition assay, Mycobacterium tuberculosis H37Rv, absence of glycerol (AID 449764);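 further: growth read after 7 days of incubation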
Settings: for IC90: measured here: IC90 growth inhibition

| Structure (SMILES) | IC50 | IC90 |
| --- | --- | --- |
| Nc1cc(Cl)c2nonc2c1[N+](=O)[O-] | 9.11 µM | 11.7 µM |
| Cc1ccc(NC(=S)N(CCCN2CCCC2)Cc2cccn2Cc2ccc(Cl)cc2)cc1C | 75.5 µM | > 100 µM |
| CCC(C)Nc1ccc(NC(C)CC)cc1 (centres undefined) | 2.31 µM | 2.97 µM |
| CCN(CC)c1ccc2c(Cl)c(Br)c(=O)oc2c1 | 22.6 µM | 61.6 µM |
| O=C1c2ccccc2S(=O)(=O)c2cc(C(=O)N3CCN(c4c(Cl)cncc4Cl)CC3)ccc21 | 34.8 µM | 52.2 µM |
| COc1ccccc1NC(=O)Nc1nc(CC(=O)N2CCN(c3ccccc3F)CC2)cs1 | – | > 100 µM |
| Cc1ccc(-c2noc(=O)n2CC(=O)c2ccc(Cl)cc2)cc1 | – | > 50 µM |
| O=C(OCC(=O)c1c[nH]c2ccccc12)c1cc(Br)ccc1O | 11.2 µM | 13.1 µM |
| O=C(OCc1ccc([N+](=O)[O-])cc1)c1cc2ccccc2oc1=O | 12 µM | > 100 µM |
| Cc1cc(C)n2nc(N)c(N=Nc3ccccc3)c2n1 | 2.59 µM | 3.46 µM |
| O=c1c(Cl)nc2cc(Cl)ccc2n1CCNc1ncc(C(F)(F)F)cc1Cl | 2.97 µM | 3.37 µM |
| Cc1ccc(C(=O)ONc2ccc(N=O)cc2)cc1 | 57.3 µM | > 100 µM |
| CNC[C@@H](Cc1ccccc1)NC[C@@H](CC1CCCCC1)NCCCc1ccccc1 | 7.99 µM | 9.68 µM |
| C(=N\Nc1nc(-c2ccccc2)cs1)/c1ccncc1 | 62.7 µM | 79.9 µM |
| C/C(=C\C(=S)Nc1ccccc1)Nc1ccc2ccccc2c1 | 37.8 µM | 50.8 µM |
| Cc1ccc(-c2noc(-c3cc4ccccc4oc3=O)n2)cc1 | 11.4 µM | > 100 µM |
| Cc1ccc(/C=N/NC(=S)NC(C)C)o1 | 42.4 µM | 46.7 µM |
| CNC(C)C#Cc1ccc2oc3cc(C)c(C)cc3c(=O)c2c1 (centres undefined) | 16.4 µM | 35.5 µM |
| O=c1[nH]c(=O)n(C2CCCO2)cc1F (centres undefined) | 57.1 µM | > 100 µM |
| COc1cc(/C=C(\C#N)c2nc3c(s2)CC(C)CC3)ccc1O (centres undefined) | 45.5 µM | 51.4 µM |
| CN(C(=O)COC(=O)c1ccc([N+](=O)[O-])cc1Cl)C1CCCCC1 | 19.2 µM | > 100 µM |
| COc1ccc(C)c2sc(N(CCN(C)C)C(=O)/C=C/c3cccs3)nc12 | 30.6 µM | 36.1 µM |

| Structure (SMILES) | IC50 | IC90 |
| --- | --- | --- |
| O=C(/C=C/Sc1ncn[nH]1)c1ccc(Cl)cc1 | 34.7 µM | 55.1 µM |
| CCC(C)N1CCC2(CC1)N=c1c(c3c4c5c(C)c(O)c3c(O)c1=NC(=O)C(C)=CC=C[C@H](C)[C@H](O)[C@@H](C)[C@@H](O)[C@@H](C)[C@H](OC(C)=O)[C@H](C)[C@@H](OC)C=CO[C@@](C)(O5)C4=O)N2 (some centres undefined) | < 0.2 µM | < 0.2 µM |
| Cc1ccc(CNc2ccc3c(c2)ncn3C(C)(C)C)cc1 | 19.9 µM | 28.8 µM |
| CCc1ccc(/C=C2/C(=O)N(C)C(=S)N2CC(=O)OC)s1 | 4.81 µM | 6.97 µM |
| S=C(Nc1ccc(Cl)cc1)NC1CC2CCC(C1)N2Cc1ccccc1 (centres undefined) | 63.1 µM | 95.6 µM |
| Cc1cc(C)c2ccc(NN)nc2c1O | 4.04 µM | 4.87 µM |
| O=C(/C(=C/c1ccc(Cl)cc1)c1nc2ccccc2[nH]1)c1cccs1 | 35.5 µM | 96.8 µM |
| COc1nn(-c2ccccc2)c(=O)c(Cl)c1Cl | 10.3 µM | 13.6 µM |
| C/C(=N\NC(N)=S)C1C2C3CC4C5CC(C42)C1C53 (centres undefined) | 22.1 µM | 31.8 µM |
| CC(=O)c1ccc(N2CCC(c3cc(-c4ccc(Cl)cc4Cl)n[nH]3)CC2)c([N+](=O)[O-])c1 | 24.3 µM | > 100 µM |
| Cc1cc(CC(C)C)n(-c2nc3ccccc3c(=O)n2OCC(N)=O)n1 | 11.2 µM | 20.6 µM |
| COC(=O)[C@@H](NC(=O)c1cc(COc2cncc(Cl)c2)on1)c1ccccc1 | 2.93 µM | 3.31 µM |
| O=C(Nc1ccc2nsnc2c1)NC1CCCCC1 | 44.3 µM | > 100 µM |
| CCOc1cc(/C=C\[N+](=O)[O-])ccc1OCC(=O)Nc1ccccc1C | 29.8 µM | 59 µM |
| Cn1nc(-c2ccc(N3CCCCC3)c(NC(=O)c3ccco3)c2)c2ccccc2c1=O | 8.18 µM | 12.2 µM |
| CCN(CC)C(=O)c1cc([N+](=O)[O-])cc2c1-c1ccc([N+](=O)[O-])cc1C2=C(C#N)C#N | 21.7 µM | 24.3 µM |
| O=C(CCCCCNc1nc(=S)[nH]c2ccccc12)N1CCN(c2ccccn2)CC1 | 90.2 µM | > 100 µM |
| CC1(C)CC(=O)C2=C(C1)NC(Nc1nc3ccccc3o1)=NC2c1ccccn1 (centres undefined) | 2.99 µM | 6.27 µM |
| CCOC(=O)c1ccc(NC(=O)CCc2nc(-c3ccc(Cl)cc3)no2)cc1 | 48.1 µM | > 100 µM |
| COc1cc(/C=N/n2c(-c3ccc4c(c3)NC(=O)CO4)csc2=Nc2cccc(C)c2)ccc1O | 37.8 µM | > 100 µM |
| Cc1ccc2c(c1)C1C[N+](C)(CC(=O)c3ccc(Cl)cc3Cl)CCC1N2C(=O)c1ccc(F)cc1 (centres undefined) | 32.2 µM | 41 µM |
